This assay deals with 5-hydroxytryptamine receptor 2A (Homo sapiens) (UniProt P28223).

Ke data for three molecules are collected here from ChEMBL document CHEMBL1250462, “Affinity of aporphines for the human 5-HT2A receptor: insights from homology modeling and molecular docking studies” (Bioorg Med Chem, 2010).

Sequence of 5-hydroxytryptamine receptor 2A (Homo sapiens) (P28223 whole entry): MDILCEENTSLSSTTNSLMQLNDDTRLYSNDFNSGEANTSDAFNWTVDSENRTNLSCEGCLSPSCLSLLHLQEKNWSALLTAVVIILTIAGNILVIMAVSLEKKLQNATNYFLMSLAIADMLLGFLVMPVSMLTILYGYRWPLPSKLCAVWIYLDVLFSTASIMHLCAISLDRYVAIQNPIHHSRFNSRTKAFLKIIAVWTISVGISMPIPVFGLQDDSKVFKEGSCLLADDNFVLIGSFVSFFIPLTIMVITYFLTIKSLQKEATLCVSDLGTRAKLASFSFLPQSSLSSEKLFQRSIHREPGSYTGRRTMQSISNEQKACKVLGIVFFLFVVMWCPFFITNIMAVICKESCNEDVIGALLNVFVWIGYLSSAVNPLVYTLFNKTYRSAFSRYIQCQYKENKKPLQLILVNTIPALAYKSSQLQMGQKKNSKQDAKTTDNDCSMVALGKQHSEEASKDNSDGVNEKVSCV
Description: Binding affinity to 5HT2A

The molecule `COc1cc2c3c(c1OC)-c1cc4c(cc1CC3N(S(C)(=O)=O)CC2)OCO4` (stereo not drawn) registered a Ke of more than 10 µM.

Take `COc1cc2c3c(c1OC)-c1cc4c(cc1CC3N(C(C)=O)CC2)OCO4` (stereo not drawn): the Ke was more than 10 µM. The same measure for `COc1cc2c3c(c1OCc1ccccc1)-c1cc4c(cc1CC3N(C)CC2)OCO4` (stereo not drawn): 4.6 µM.
